Literature values, collected in the PKSmart pharmacokinetics tables (Seal et al. 2025).

Assay: Lombardo, Berellini, Obach 2018, Drug Metab Dispos 46:1466, doi 10.1124/dmd.118.082966
Conditions: human; for MRT / Vd / clearance / half-life: in vivo, iv; for fraction unbound: plasma

SMILES: CCC(C(N)=O)N1CCCC1=O (centres undefined)
- MRT: 11.2 h
- Vd: 0.6 L/kg
- clearance: 0.9 mL/min/kg
- half-life: 8.23 h
- fraction unbound: 0.9

SMILES: CC(C)NC[C@H](O)COc1ccc(O)cc1
- MRT: 3.23 h
- Vd: 4.28 L/kg
- clearance: 22.1 mL/min/kg
- half-life: 2.85 h

SMILES: CCN(CC)C(=O)[C@]1(c2ccccc2)C[C@@H]1CN
- MRT: 8.17 h
- Vd: 4.51 L/kg
- clearance: 8.17 mL/min/kg
- half-life: 6.48 h

SMILES: Cc1cc(F)ccc1[C@H]1CNCCN1C(=O)N(C)[C@H](C)c1cc(C(F)(F)F)cc(C(F)(F)F)c1
- MRT: 12.8 h
- Vd: 3.8 L/kg
- clearance: 5.09 mL/min/kg
- half-life: 10 h

SMILES: C1COC(NC(C2CC2)C2CC2)=N1
- MRT: 10.6 h
- Vd: 4.5 L/kg
- clearance: 7.1 mL/min/kg
- half-life: 8.3 h
- fraction unbound: 0.9

SMILES: O=S(=O)(c1cccc2cnccc12)N1CCCNCC1
- MRT: 0.26 h
- Vd: 1.22 L/kg

SMILES: Cc1cc(Nc2cc(N3CCN(C)CC3)nc(Sc3ccc(NC(=O)C4CC4)cc3)n2)n[nH]1
- MRT: 4.5 h
- Vd: 5.1 L/kg
- clearance: 18.4 mL/min/kg
- half-life: 8.4 h

SMILES: C[C@@H](c1cccnc1F)c1c(CCN(C)C)sc2ccccc12
- MRT: 10 h
- Vd: 5.73 L/kg
- clearance: 10.4 mL/min/kg
- half-life: 15 h

SMILES: COc1cc(NC(C)CCCN)c2ncccc2c1 (centres undefined)
- MRT: 11 h
- Vd: 4 L/kg
- clearance: 5.8 mL/min/kg
- half-life: 7.1 h

SMILES: CN1C(=O)C(O)C[C@H]1c1cccnc1 (some centres undefined)
- MRT: 7.9 h
- Vd: 0.85 L/kg
- clearance: 1.8 mL/min/kg
- half-life: 5.9 h

SMILES: CNC[C@@H]1CC[C@@H](N)[C@@H](O[C@@H]2[C@H](O)[C@@H](O[C@H]3OC[C@](C)(O)[C@H](NC)[C@H]3O)[C@H](N)C[C@@H]2N)O1
- MRT: 2.4 h
- Vd: 0.15 L/kg
- clearance: 1.1 mL/min/kg
- half-life: 2.1 h

SMILES: CN(C)CCNC(=O)c1cccc2cc3ccccc3nc12
- MRT: 3.49 h
- Vd: 3.41 L/kg
- clearance: 16.3 mL/min/kg
- half-life: 2.08 h
- fraction unbound: 0.03

SMILES: CN(C)[C@@H]1C(O)=C(C(=O)NCN2CCCC2)C(=O)[C@@]2(O)C(O)=C3C(=O)c4c(O)cccc4[C@@](C)(O)[C@H]3C[C@@H]12
- MRT: 9.3 h
- Vd: 0.54 L/kg
- clearance: 0.97 mL/min/kg
- half-life: 8.8 h
- fraction unbound: 0.5

SMILES: Cc1onc(-c2c(Cl)cccc2Cl)c1C(=O)NC1C(=O)N2C(C(=O)O)C(C)(C)S[C@H]12 (some centres undefined)
- MRT: 0.92 h
- Vd: 0.11 L/kg
- clearance: 2 mL/min/kg
- half-life: 0.88 h

SMILES: COc1cc(CC(=O)NCC(=O)N(CCC(=O)O)Cc2ccc(OC)c(OC)c2)ccc1NC(=O)Nc1ccccc1C
- MRT: 0.38 h
- Vd: 0.25 L/kg
- clearance: 11 mL/min/kg
- half-life: 1.6 h

SMILES: O=C1CN=C(c2ccccn2)c2cc(Br)ccc2N1
- MRT: 28 h
- Vd: 0.85 L/kg
- clearance: 0.51 mL/min/kg
- half-life: 21 h

SMILES: CC(C)CC1C(=O)N2CCC[C@H]2[C@]2(O)O[C@@](C)(NC(=O)C3C[C@@H]4c5cccc6[nH]cc(c56)C[C@H]4N(C)C3)C(=O)N12 (some centres undefined)
- MRT: 5.01 h
- Vd: 4.02 L/kg
- clearance: 12.8 mL/min/kg
- half-life: 8.84 h

SMILES: O=C(O[C@H]1CC2CC[C@@H](C1)[N+]21CCCC1)C(O)(c1ccccc1)c1ccccc1
- MRT: 6.1 h
- Vd: 5.1 L/kg
- clearance: 13.9 mL/min/kg
- half-life: 5 h
- fraction unbound: 0.33

SMILES: O=C(O)C(O)Cc1ccc(O)c(O)c1 (centres undefined)
- MRT: 0.53 h
- Vd: 0.38 L/kg
- clearance: 17.8 mL/min/kg
- half-life: 0.37 h

SMILES: COCCN1CCN(Cc2ccc(-c3n[nH]c4c3C(=O)c3c(NC(=O)NN5CCOCC5)cccc3-4)cc2)CC1
- MRT: 8.5 h
- Vd: 5.9 L/kg
- clearance: 11.5 mL/min/kg
- half-life: 9.9 h

SMILES: CO[C@H]1C[C@@H](O[C@@H]2C(C)C(=O)O[C@H](C)[C@H](C)[C@H](O)C(C)C(=O)[C@@]3(CO3)C[C@H](C)[C@H](O[C@H]3O[C@@H](C)C[C@@H](N(C)C)[C@H]3O)[C@H]2C)O[C@@H](C)[C@@H]1O (some centres undefined)
- MRT: 1.41 h
- Vd: 0.77 L/kg
- clearance: 9.1 mL/min/kg
- half-life: 1.05 h
- fraction unbound: 0.4

SMILES: N#Cc1ccc2[nH]cc(CCCCN3CCN(c4ccc5oc(C(N)=O)cc5c4)CC3)c2c1
- MRT: 21.5 h
- Vd: 4.85 L/kg
- clearance: 3.76 mL/min/kg
- half-life: 15.7 h
- fraction unbound: 0.03

SMILES: NS(=O)(=O)c1ccc(S(=O)(=O)Nc2cccc3c(Cl)c[nH]c23)cc1
- MRT: 16.9 h
- Vd: 0.68 L/kg
- clearance: 0.72 mL/min/kg
- half-life: 20.3 h
- fraction unbound: 0.001

SMILES: CC[C@@]1(O)C(=O)OCc2c1cc1n(c2=O)Cc2cc3cc(O)ccc3nc2-1
- MRT: 1.63 h
- Vd: 0.22 L/kg
- clearance: 2.23 mL/min/kg
- half-life: 1.67 h

SMILES: COc1cccc2c1C(=O)c1c(O)c3c(c(O)c1C2=O)C[C@@](O)(C(=O)CO)C[C@@H]3O[C@H]1C[C@H](N)[C@H](OCc2ccccc2)[C@H](C)O1
- MRT: 43.2 h
- Vd: 48 L/kg
- clearance: 18.5 mL/min/kg
- half-life: 34.6 h

SMILES: CCC/N=C1\S/C(=C\c2ccc(OC[C@H](O)CO)c(Cl)c2)C(=O)N1c1ccccc1C
- MRT: 42.6 h
- Vd: 2.28 L/kg
- clearance: 0.9 mL/min/kg
- half-life: 32.9 h

SMILES: CCCCCCN1CCC(C(=O)N(C)CC)(c2ccccc2)CC1
- clearance: 24 mL/min/kg
- half-life: 3.6 h

SMILES: C#Cc1cccc(Nc2ncnc3cc(OC)c(OCCCCCCC(O)=NO)cc23)c1
- MRT: 0.78 h
- Vd: 0.56 L/kg
- clearance: 12 mL/min/kg
- half-life: 5.01 h

SMILES: CC(=O)OC1=C2C(C)[C@@H](OC(=O)C(O)C(CC(C)C)NC(=O)OC(C)(C)C)[C@@H]3OC(=O)O[C@]3([C@@H](OC(=O)c3ccccc3)[C@@H]3[C@]4(OC(C)=O)CO[C@@H]4C[C@H](O)[C@@]3(C)C1=O)C2(C)C (some centres undefined)
- MRT: 28.4 h
- Vd: 13.8 L/kg
- clearance: 8.12 mL/min/kg
- half-life: 30.1 h

SMILES: Cc1cc(-n2cccc2)c(S(C)(=O)=O)cc1C(=O)NC(=N)N
- MRT: 2.3 h
- Vd: 1.1 L/kg
- clearance: 8.2 mL/min/kg
- half-life: 2.2 h

SMILES: COC(=O)O[C@@]12CO[C@@H]1C[C@H](O)[C@@]1(C)C(=O)C(OC(C)=O)=C3C(C)[C@@H](OC(=O)C(O)C(NC(=O)c4ccccc4)c4ccccc4)C[C@@](O)([C@@H](OC(=O)c4ccccc4)[C@H]21)C3(C)C (some centres undefined)
- MRT: 13 h
- Vd: 6.9 L/kg
- clearance: 8.6 mL/min/kg
- half-life: 31 h

SMILES: O=P(NCCCl)(NCCCl)O[C@@H]1O[C@H](CO)[C@@H](O)[C@H](O)[C@H]1O
- MRT: 2.49 h
- Vd: 0.24 L/kg
- clearance: 1.6 mL/min/kg
- half-life: 2.37 h
- fraction unbound: 0.71

SMILES: CN1CC[C@]23c4c5ccc(O)c4O[C@H]2[C@@H](O[C@@H]2OC(C(=O)O)[C@@H](O)[C@H](O)[C@H]2O)C=C[C@H]3[C@H]1C5 (some centres undefined)
- MRT: 0.91 h
- Vd: 0.12 L/kg
- clearance: 2.2 mL/min/kg
- half-life: 1.4 h
- fraction unbound: 0.67

SMILES: CN(C)CCCN1c2ccccc2Sc2ccccc21
- MRT: 9.6 h
- Vd: 8.1 L/kg
- clearance: 14 mL/min/kg
- half-life: 7.9 h
- fraction unbound: 0.11

SMILES: CCC[C@H](Nc1nc(-c2ccc(NC(=O)NCC)c(OC)c2)ncc1C)c1cccnc1
- MRT: 2.5 h
- Vd: 3.41 L/kg
- clearance: 22.2 mL/min/kg
- half-life: 2.9 h

SMILES: CCN(CC)CCCC(C)Nc1c2ccc(Cl)cc2nc2ccc(OC)cc12 (centres undefined)
- MRT: 150 h
- Vd: 45 L/kg
- clearance: 5.1 mL/min/kg
- half-life: 120 h

SMILES: CN1c2ccccc2[C@@H](NCCCCCCC(=O)O)c2ccc(Cl)cc2S1(=O)=O
- MRT: 1.9 h
- Vd: 0.3 L/kg
- clearance: 2.8 mL/min/kg
- half-life: 1.4 h

SMILES: CC(C)N(CC[C@H](c1ccccc1)c1cc(CO)ccc1O)C(C)C
- Vd: 2.41 L/kg
- fraction unbound: 0.5

SMILES: COc1ccccc1OCCNCC(O)COc1cccc2[nH]c3ccccc3c12 (centres undefined)
- MRT: 2.8 h
- Vd: 1.3 L/kg
- clearance: 7.8 mL/min/kg
- half-life: 2.4 h

SMILES: CCCCCN(C)CCC(O)(P(=O)(O)O)P(=O)(O)O
- MRT: 5.1 h
- Vd: 0.55 L/kg
- clearance: 1.8 mL/min/kg
- half-life: 14 h
- fraction unbound: 0.15

SMILES: COc1ccc2[n-]c([S+](O)Cc3ncc(C)c(OC)c3C)nc2c1 (centres undefined)
- MRT: 0.48 h
- Vd: 0.24 L/kg
- clearance: 8.4 mL/min/kg
- half-life: 0.58 h

SMILES: CCCCC(C)(C)[C@@H](O)/C=C\[C@@H]1[C@H](C/C=C/CCCC(=O)O)[C@@H](Cl)C[C@@H]1O
- MRT: 0.2 h
- Vd: 0.16 L/kg
- clearance: 13.2 mL/min/kg
- half-life: 0.8 h

SMILES: CC1(C)S[C@@H]2C(NC(=O)C(NC(=O)NC(=N)N)c3ccccc3)C(=O)N2C1C(=O)O (some centres undefined)
- MRT: 2.5 h
- Vd: 0.24 L/kg
- clearance: 1.6 mL/min/kg
- half-life: 2.09 h
- fraction unbound: 0.8

SMILES: C/C=C(/C)C(=O)O[C@H]1[C@H](OC(C)=O)[C@]2(CO)[C@H](O)C[C@]3(C)C(=CC[C@@H]4[C@@]5(C)CC[C@H](O[C@@H]6OC(C(=O)O)[C@@H](O[C@@H]7O[C@H](CO)[C@@H](O)[C@H](O)[C@H]7O)[C@H](O)[C@H]6O[C@@H]6O[C@H](CO)[C@@H](O)[C@H](O)[C@H]6O)[C@](C)(CO)[C@@H]5CC[C@]43C)[C@@H]2CC1(C)C (some centres undefined)
- MRT: 1.5 h
- Vd: 0.23 L/kg
- clearance: 2.55 mL/min/kg
- half-life: 1.8 h

SMILES: CNCCCC12CCC(c3ccccc31)c1ccccc12
- MRT: 54 h
- Vd: 45 L/kg
- clearance: 14 mL/min/kg
- half-life: 51 h
- fraction unbound: 0.11

SMILES: O=C(/C=C/c1ccc(O)c(O)c1)O[C@@H]1[C@H](O)C[C@@](O)(C(=O)O)C[C@H]1OC(=O)/C=C/c1ccc(O)c(O)c1
- MRT: 0.3 h
- Vd: 0.63 L/kg
- clearance: 34.6 mL/min/kg
- half-life: 0.57 h

SMILES: CC(C)CN(C[C@@H](O)[C@H](Cc1ccccc1)NC(=O)O[C@H]1CO[C@H]2OCC[C@H]21)S(=O)(=O)c1ccc(N)cc1
- clearance: 7.81 mL/min/kg
- half-life: 15 h
